# According to patent US10226044B2, “Agricultural and horticultural composition and method for cultivating plant” (AJINOMOTO CO., INC., priority 2014, dated 2019):
# What was measured:
# tomato (Momotaro Fight) = assay: Sprinkling of various compounds on tomato (Momotaro): first appearance, coloring and number of fruit; type: in vivo
# Protocol: Three seeds of tomato (Momotaro Fight) were shown in compost contained in a slit pot, and cultivated in the same manner as described in Example 1, provided that the cultivation was performed in a greenhouse (daytime temperature was 25° C. (6:00 to 20:00), and night temperature was 15° C. (20:00 to 6:00)). The compost and application of fertilizer were the same or performed in the same manner as those described in Example 1. After 3 weeks, one root clump was left, and the others were thinned out. When a flower cluster of the first tier appeared, a support was put up, and after a flower cluster of the second tier appeared, pinching was performed (pinching of terminal bud). After the plants of four root clumps uniformly grew, and flower buds began to appear, water (Con.), 10 mM L-isoleucine aqueous solution (Ile), 10 mM monosodium glutamate aqueous solution (GluNa), 5 mM urea aqueous solution (Urea), or 10 mM phenylalanine aqueous solution (Phe) was sprinkled on the whole plants every two weeks. The sprinkled volume was adjusted in accordance with the growth of the plants, and it was 15 to 30 mL per one root clump. The concentration of urea was 5 mM so that nitrogen amount provided by it was the same as that provided by each of the amino acids. Then, the first appearance of fruit, ripening of fruit, and number of fruit produced were investigated for each root clump.
# [1] = system: cherry tomato (Suncherry Pure); assay: Amino acid analysis of tomato fruit obtained with sprinkling of Ile or Pro; type: in vivo
# Protocol: (§1) After the plants of four root clumps uniformly grew, and flower buds began to appear, water (Con.), 10 mM L-isoleucine aqueous solution (Ile), or 10 mM proline aqueous solution (Pro) was sprinkled on the whole plants once a week. The sprinkled volume was adjusted in accordance with the growth of the plants, and it was 15 to 30 mL per one root clump.
# Mature fruit were taken from each of the cherry tomato plants sprinkled with water, Ile, or Pro, and the amino acid content was analyzed for each. Two pieces of fruit were taken from the flower cluster of the second tier of one root clump, that is, a total of 8 pieces of fruit were taken for each test group. Fruit juice was pressed out of each piece of fruit, and the fruit juice was diluted 10 times with 0.02 N HCl, and subjected to filter filtration. The amino acids contained in the obtained filtrate were measured. Measurement of the amino acids was performed with High Speed Amino Acid Analyzer L-8800 (Hitachi) according to the manual of this instrument. The amounts of the amino acids (μmol/mL) in each fruit juice filtrate were calculated, and the averages for eight pieces of fruit were used as the amino acid amounts of the corresponding test group.
# [2] = system: cherry tomato (Suncherry Pure); assay: Sugar content and acidity analysis of tomato fruit juice; type: in vivo; settings: 10 mM sprinkled once a week
# Protocol: as §1
# Mature tomato fruit were taken from cherry tomato plants of each experimental group in the same manner as described in iii) above, and fruit juice was pressed out from each fruit. Glucose content, fructose content, and acidity of each fruit juice extract were analyzed. Analysis of glucose and fructose was performed for a 20-fold diluted solution of fruit juice by using a food analysis reagent kit, F-Kit (Saccharose (Sucrose)/D-Glucose/D-Fructose Kit (Roche)) and DU800 Spectrophotometer (Beckman Coulter) according to the manuals of the kit and instrument. Acidity analysis was performed by using a pocket acidity meter (PAL-AC1, ATAGO).
# [3] = system: LOX, JAR1, PI and MYC2 genes; assay: Investigation of isoleucine concentration for sprinkling (I): gene expression; type: in vivo, cherry tomato (Suncherry Pure); settings: 1 mM, 4 mM, 7 mM or 10 mM Ile, 20 mL per plant, sprinkled twice; leaves 3 hours after second sprinkling
# Protocol: One week afterward, Ile was sprinkled again in the same manner, the leaves were collected 3 hours thereafter, and expression of the LOX, JAR1, PI and MYC2 genes were analyzed in the same manner as described in Example 5.
# LOX and Psy genes = assay: Gene expression in pepper (Anaheim) sprinkled with Ile; type: in vivo; settings: 10 mM Ile once a week, compared to Con.
# Protocol: A 10 mM isoleucine aqueous solution (Ile) was sprinkled on pepper plants (variety, Anaheim), which also belong to the family Solanaceae, like tomato, and gene expression analysis was performed. The pepper plants were cultivated in a greenhouse in the same manner as described in Example 2. Ile was sprinkled once a week, and after the second sprinkling, leaves were collected from the pepper plants. RNA extraction, cDNA synthesis, and real-time PCR were performed in the same manner as described in Example 5 to analyze gene expression. Expression of the LOX gene was analyzed by using leaves collected 3 hours after the second sprinkling, and expression of the Psy gene was analyzed by using leaves collected 24 hours after the second sprinkling.
# [4] = system: VR callus derived from European grape; assay: Anthocyanin content of grape calluses treated with amino acids; type: cell-based, Vitis vinifera L.
# Protocol: A cell line (VR, management number RPC00003) derived from European grape (Vitis vinifera L.) and stored in the Institute of Physical and Chemical Research, BioResource Center was subcultured on the MS agar medium. The subcultured VR callus was transferred to the MS agar medium containing a 5 mM solution of a different amino acid, and cultured. For the positive control, abscisic acid (ABA), for which coloring-promoting effect is known, was used at 100 μM (Jeong et al., Plant Science, 167:247-252, 2004). On the 5th day after the transfer, the callus was lyophilized and ground, and anthocyanin was extracted from it by using a 1% HCl/MeOH solution. Absorbance of the extract was measured at 530 nm, and the content of anthocyanin was measured by using cyanidine 3-glucoside as a standard substance.
# (2) In the same manner as described above, anthocyanin content of grape calluses treated with isoleucine and proline, respectively, were measured.
# rice seeds = rice seeds treated with 0.2 to 20 mM isoleucine; cited from earlier work
# bok choy = settings: substitution for 20% of nitrate nitrogen in nutrient solution, hydroponics; cited from earlier work
# [5] = fruit juice, plants sprinkled with 10 mM solution once a week, average of 8 fruit
structure (smiles),measurement,setting,value
"CC[C@H](C)[C@H](N)C(=O)O [Ile, L-isoleucine]",color of fruit obtained from flowers that bloomed on the same day,"tomato (Momotaro Fight); 10 mM, fruit of water-sprinkled plant was green",already turned color to red
same,number of fruit turning color to orange or red,"tomato (Momotaro Fight); 107th day after sowing, per four root clumps, water: 0",4
same,number of harvested fruits,"tomato (Momotaro Fight); after cultivation for 3 months after sowing, per four root clumps, water: 8",16
same,many kinds of essential amino acids including branched chain amino acids and aromatic amino acids in fruit,"[1]; 10 mM sprinkled once a week, compared to control",increased
same,Ala in fruit juice,[1]; [5],4.51 µmol/mL
same,Arg in fruit juice,[1]; [5],0.14 µmol/mL
same,Asn in fruit juice,[1]; [5],0.55 µmol/mL
same,Asp in fruit juice,[1]; [5],1.33 µmol/mL
same,Cys in fruit juice,[1]; [5],0.21 µmol/mL
same,Gln in fruit juice,[1]; [5],1.1 µmol/mL
same,Glu in fruit juice,[1]; [5],6.46 µmol/mL
same,Gly in fruit juice,[1]; [5],0.35 µmol/mL
same,His in fruit juice,[1]; [5],0.19 µmol/mL
same,Ile in fruit juice,[1]; [5],0.23 µmol/mL
same,Leu in fruit juice,[1]; [5],0.39 µmol/mL
same,Lys in fruit juice,[1]; [5],0.33 µmol/mL
same,Met in fruit juice,[1]; [5],0.09 µmol/mL
same,Phe in fruit juice,[1]; [5],0.5 µmol/mL
same,Pro in fruit juice,[1]; [5],0.33 µmol/mL
same,Ser in fruit juice,[1]; [5],0.67 µmol/mL
same,Thr in fruit juice,[1]; [5],0.3 µmol/mL
same,Total amino acids in fruit juice,[1]; [5],20.25 µmol/mL
same,Trp in fruit juice,[1]; [5],0.06 µmol/mL
same,Tyr in fruit juice,[1]; [5],0.082 µmol/mL
same,Val in fruit juice,[1]; [5],0.21 µmol/mL
same,γ-ABA in fruit juice,[1]; [5],6.42 µmol/mL
same,"glucose content and fructose content of the fruit, comparison of groups",[2],almost the same as those of the control
same,Acidity,[2]; fruit juice of mature fruit,0.46%
same,Fructose,[2]; fruit juice of mature fruit,13.3 g/L
same,Glucose,[2]; fruit juice of mature fruit,13.3 g/L
same,"Expression of the LOX, JAR1, PI and MYC2 genes",[3],increased substantially in an Ile concentration-dependent manner
same,Expression of the LOX gene,LOX and Psy genes; leaves 3 hours after the second sprinkling,higher
same,Expression of the Psy gene,LOX and Psy genes; leaves 24 hours after the second sprinkling,higher
same,"anthocyanin content of callus, comparison of amino acids","[4]; 5 mM, 5th day",highest
same,change in color of the grape callus (anthocyanin content),"[4]; Ile of 1 mM or higher, Pro compared with Ile",promoted
same,production of momilactones A and B,rice seeds,promoted
same,growth (weight of root clump),bok choy,not effective
same,nitrogen and phosphorus contents of terrestrial parts (shoots),bok choy,increased
